Broadly, the inhibition is the drop in the measured response relative to a control, in per cent. As usually defined, the EC50 is the midpoint of the concentration-response curve. A higher EC50 goes with a need for much substance. In general, IC50 refers to the concentration that gives 50% inhibition. One may read the melting point as the temperature, or range, at which the solid turns liquid.

Series [1] relates to C-terminal catalytic domain of human DNMT3A (hDNMT3A). The series is described as follows: DNMT3A assay (restriction-based fluorescence assay). The series is classed as biochemical. Particulars: for selectivity for DNMT3A over G9a inhibition: G9a IC50 vs DNMT3A EC50. From the text:
(§1) DNMT3A enzyme inhibition was adapted from the restriction-based fluorescence assay protocol described in Ceccaldi et al.. Briefly, a 5'-labelled biotin oligonucleotide is hybridized to its complementary strand labelled with 6-carboxyfluorescein at the 3′-end into a 384 well microplate (black Optiplates; Perkin Elmer) pre-coated with avidin. The duplex contains a unique CpG site overlapping with a restriction site of a methylation sensitive restriction enzyme. The C-terminal catalytic domain of human DNMT3A (residues 623–908), produced as described, was added in each well (200 ng/well) and mixed with the chemical compounds at desired concentrations and freshly prepared AdoMet (20 µM final concentration) to start the reaction in a total volume of 50 µL. After 1 hour incubation at 37°C each well were washed three times with PBS, 0.05% Tween-20, 500 mM NaCl and three more times with PBST. Specific fluorescent signals were detected with the methylation-sensitive restriction enzyme HpyCH4IV (NEB) as described and measured on a Perkin Elmer Envision detector. The percentage of inhibition is reported. The formula used to calculate the percentage of inhibition is [(X-Y)/X]×100, where X is the signal determined in the absence of the inhibitor and Y is the signal obtained in the presence of the inhibitor. […] The non-linear regression fittings with sigmoidal dose-response (variable slope) were performed with GraphPad Prism 4.03 (GraphPad Software).

In series [2] the target is T1, C-terminal catalytic domain of human DNMT3A (hDNMT3A) (Homo sapiens, UniProt Q9Y6K1).
T1 construct: catalytic domain of human DNMT3A (residues 623–908), produced as described; made in house
Described as above. In kind it is biochemical. The settings on record: for inhibition at 3.2 µM: 3.2 µM compound; for inhibition at 3.2 µM / inhibition at 10 µM / inhibition at 32 µM / inhibition at 100 µM: read-out: % inhibition ± SD hDNMT3A; for inhibition at 10 µM: 10 µM compound; for inhibition at 32 µM: 32 µM compound; for inhibition at 100 µM: 100 µM compound; for EC50: catalytic domain of hDNMT3A, means of at least three experiments.
Text: as §1

The next series relates to RAJI cells. The series is described as follows: Cell viability by trypan blue exclusion, RAJI. In kind it is cell-based, human. The settings on record: 48 h; for IC50: Homo sapiens, Raji, read-out: IC50 (mean ± SD) cell viability RAJI. The protocol:
U-937 and RAJI cell lines were purchased from Deutsche Sammlung für Mikroorganismen und Zellkulturen (DSZM). Cells were maintained in RPMI 1640 (Lonza) supplemented with 10% fetal calf serum (Lonza) and 1% antibiotic–antimycotic (Lonza). Cells were treated with compounds at the indicated concentrations in exponential growth phase. Proliferation and viability were assessed by trypan blue exclusion analysis at the indicated time points.

T1 sequence (Q9Y6K1 627-912): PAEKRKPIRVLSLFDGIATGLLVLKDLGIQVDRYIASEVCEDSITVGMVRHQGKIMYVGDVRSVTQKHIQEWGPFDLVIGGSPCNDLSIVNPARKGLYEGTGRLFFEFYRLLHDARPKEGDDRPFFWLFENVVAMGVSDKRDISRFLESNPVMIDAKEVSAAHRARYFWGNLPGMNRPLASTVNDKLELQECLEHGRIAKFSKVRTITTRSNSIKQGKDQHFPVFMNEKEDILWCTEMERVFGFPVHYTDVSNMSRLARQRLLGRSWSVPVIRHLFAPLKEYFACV

Regarding `CN1CCCN(c2nc(NC3CCN(Cc4ccccc4)CC3)c3ccccc3n2)CC1` [Compound 4], the “selectivity for DNMT3A over G9a inhibition” value in series [1] is greater than 40 fold. In series [2], the inhibition at 3.2 µM amounted to 16 ± 4%, the inhibition at 10 µM came out at 39 ± 2%, the inhibition at 32 µM was 55 ± 3% and the inhibition at 100 µM was 67 ± 3%. This compound returned a half-maximal effective concentration (EC50) in series [2] of 10 ± 2.5 µM. The IC50 in the series with RAJI cells was determined as 21.1 ± 2.5 µM.

In the case of `c1ccc(CN2CCC(Nc3nc(N4CCCC4)nc4ccccc34)CC2)cc1` [Compound 10, N-(1-benzylpiperidin-4-yl)-2-(pyrrolidin-1-yl)quinazolin-4-amine], the melting point was 112 to 115 °C. The “selectivity for DNMT3A over G9a inhibition” value in series [1] was found to be 18 fold. Further, the “selectivity for DNMT3A over DNMT1” value in series [1] (ratio of EC50 values) came out at 4 fold. Besides, in series [2], the inhibition at 3.2 µM was 8 ± 4%, the inhibition at 10 µM was determined as 21 ± 8%, the inhibition at 32 µM worked out at 43 ± 6% and the inhibition at 100 µM stood at 70 ± 4%. Also, the EC50 in series [2] is 35 ± 12 µM. Moreover, the concentration for half-maximal inhibition (IC50) in the series on RAJI cells was 18.7 ± 4.3 µM.

Take `c1ccc(CN2CCC(Nc3nc(N4CCN(c5ccccn5)CC4)nc4ccccc34)CC2)cc1` [Compound 13]: the “selectivity for DNMT3A over G9a inhibition” value in series [1] is recorded as greater than 40 fold. In series [2], the inhibition at 3.2 µM worked out at 8 ± 1%, the inhibition at 10 µM came out at 19 ± 13%, the inhibition at 32 µM came to 52 ± 5% and the inhibition at 100 µM came out at 62 ± 3%. For the same compound, it took 12 ± 4 µM to reach a half-maximal effect in series [2] (EC50). The IC50 with RAJI cells came to 19.7 ± 1.4 µM.

Consider `c1ccc(CN2CCC(Nc3nc(N4CCN(c5ccccc5)CC4)nc4ccccc34)CC2)cc1` [Compound 14, N-(1-benzylpiperidin-4-yl)-2-(4-phenylpiperazin-1-yl)quinazolin-4-amine], for which, in series [1], the “selectivity for DNMT3A over G9a inhibition” value is listed as greater than 40 fold. Moreover, in series [2], the inhibition at 3.2 µM came to 13 ± 2%, the inhibition at 10 µM was 40 ± 4%, the inhibition at 32 µM is 54 ± 3% and the inhibition at 100 µM amounted to 63 ± 4%. The same compound showed a concentration giving a half-maximal response (EC50) in series [2] of 9 ± 2 µM. The 50% inhibitory concentration (IC50) in the series on RAJI cells turned out to be 3.4 ± 0.3 µM. For the same compound, the “antiproliferative potency compared to SGI-1027, fold more potent” value with RAJI cells (RAJI) amounted to 3 fold.

The record behind these values is publication PMC4014597 (PLoS ONE, 2014).
